Results as given in ChEMBL document CHEMBL5325403, “Benzenesulfonyl thiazoloimines as unique multitargeting antibacterial agents towards Enterococcus faecalis” (Eur J Med Chem, 2023).
≈ marks a conversion by molar mass, not a printed value.

What was measured:
Format in all cases: functional
Staphylococcus aureus [1] = experiment: Antibacterial activity against Staphylococcus aureus assessed as inhibition of bacterial growth by continuous dilution method
Staphylococcus aureus [2] = experiment: Antibacterial activity against Staphylococcus aureus ATCC 25923 assessed as inhibition of bacterial growth by continuous dilution method
Escherichia coli [3] = experiment: Antibacterial activity against Escherichia coli assessed as inhibition of bacterial growth by continuous dilution method
Pseudomonas aeruginosa [4] = experiment: Antibacterial activity against Pseudomonas aeruginosa assessed as inhibition of bacterial growth by continuous dilution method
Pseudomonas aeruginosa [5] = experiment: Antibacterial activity against Pseudomonas aeruginosa ATCC 27853 assessed as inhibition of bacterial growth by continuous dilution method
Staphylococcus aureus [6] = experiment: Antibacterial activity against methicillin-resistant Staphylococcus aureus N315 assessed as inhibition of bacterial growth by continuous dilution method
Staphylococcus aureus [7] = experiment: Antibacterial activity against Staphylococcus aureus ATCC 29213 assessed as inhibition of bacterial growth by continuous dilution method
Escherichia coli [8] = experiment: Antibacterial activity against Escherichia coli ATCC 25922 assessed as inhibition of bacterial growth by continuous dilution method
Klebsiella pneumoniae = experiment: Antibacterial activity against Klebsiella pneumoniae assessed as inhibition of bacterial growth by continuous dilution method
Enterococcus faecalis = experiment: Antibacterial activity against Enterococcus faecalis assessed as inhibition of bacterial growth by continuous dilution method
Acinetobacter baumannii = experiment: Antibacterial activity against Acinetobacter baumannii assessed as inhibition of bacterial growth by continuous dilution method

SMILES | MIC (Staphylococcus aureus [1]) | MIC (Staphylococcus aureus [2]) | MIC (Escherichia coli [3]) | MIC (Pseudomonas aeruginosa [4]) | MIC (Pseudomonas aeruginosa [5]) | MIC (Staphylococcus aureus [6]) | MIC (Staphylococcus aureus [7]) | MIC (Escherichia coli [8]) | MIC (Klebsiella pneumoniae) | MIC (Enterococcus faecalis) | MIC (Acinetobacter baumannii)
CC(=O)Nc1ccc(S(=O)(=O)C/C(=N/OCc2ccc(Cl)cc2)c2nccs2)cc1 | 128 µg/mL (≈ 276 µM) | 64 µg/mL (≈ 138 µM) | 64 µg/mL (≈ 138 µM) | 64 µg/mL (≈ 138 µM) | 32 µg/mL (≈ 69 µM) | 32 µg/mL (≈ 69 µM) | 64 µg/mL (≈ 138 µM) | 8 µg/mL (≈ 17.2 µM) | 32 µg/mL (≈ 69 µM) | 64 µg/mL (≈ 138 µM) | 128 µg/mL (≈ 276 µM)
CC(=O)Nc1ccc(S(=O)(=O)C/C(=N/OCc2ccc(Cl)cc2Cl)c2nccs2)cc1 | 128 µg/mL (≈ 257 µM) | 128 µg/mL (≈ 257 µM) | 64 µg/mL (≈ 128 µM) | 64 µg/mL (≈ 128 µM) | 32 µg/mL (≈ 64.2 µM) | 64 µg/mL (≈ 128 µM) | 128 µg/mL (≈ 257 µM) | 16 µg/mL (≈ 32.1 µM) | 64 µg/mL (≈ 128 µM) | 64 µg/mL (≈ 128 µM) | 128 µg/mL (≈ 257 µM)
CCCCO/N=C(/CS(=O)(=O)c1ccc(NC(C)=O)cc1)c1nccs1 | 64 µg/mL (≈ 162 µM) | 128 µg/mL (≈ 324 µM) | 32 µg/mL (≈ 80.9 µM) | 64 µg/mL (≈ 162 µM) | 64 µg/mL (≈ 162 µM) | 64 µg/mL (≈ 162 µM) | 64 µg/mL (≈ 162 µM) | 16 µg/mL (≈ 40.5 µM) | 16 µg/mL (≈ 40.5 µM) | 64 µg/mL (≈ 162 µM) | 128 µg/mL (≈ 324 µM)
CCCCCCCCO/N=C(/CS(=O)(=O)c1ccc(NC(C)=O)cc1)c1nccs1 | 128 µg/mL (≈ 283 µM) | 64 µg/mL (≈ 142 µM) | 32 µg/mL (≈ 70.9 µM) | 64 µg/mL (≈ 142 µM) | 64 µg/mL (≈ 142 µM) | 64 µg/mL (≈ 142 µM) | 64 µg/mL (≈ 142 µM) | 16 µg/mL (≈ 35.4 µM) | 64 µg/mL (≈ 142 µM) | 64 µg/mL (≈ 142 µM) | 128 µg/mL (≈ 283 µM)
CC(=O)Nc1ccc(S(=O)(=O)C/C(=N/NC(=O)c2ccccc2O)c2nccs2)cc1 | 128 µg/mL (≈ 279 µM) | 64 µg/mL (≈ 140 µM) | 128 µg/mL (≈ 279 µM) | 256 µg/mL (≈ 558 µM) | 16 µg/mL (≈ 34.9 µM) | 64 µg/mL (≈ 140 µM) | 256 µg/mL (≈ 558 µM) | 64 µg/mL (≈ 140 µM) | 128 µg/mL (≈ 279 µM) | 128 µg/mL (≈ 279 µM) | 128 µg/mL (≈ 279 µM)
Nc1ccc(S(=O)(=O)Nc2nccs2)cc1 [SULFATHIAZOLE] | 128 µg/mL (≈ 501 µM) | 64 µg/mL (≈ 251 µM) | 256 µg/mL (≈ 1000 µM) | 128 µg/mL (≈ 501 µM) | 512 µg/mL (≈ 2010 µM) | 64 µg/mL (≈ 251 µM) | 128 µg/mL (≈ 501 µM) | 128 µg/mL (≈ 501 µM) | 128 µg/mL (≈ 501 µM) | 128 µg/mL (≈ 501 µM) | 128 µg/mL (≈ 501 µM)
CC(=O)Nc1ccc(S(=O)(=O)C/C(=N/Nc2ccccc2)c2nccs2)cc1 | 256 µg/mL (≈ 618 µM) | 256 µg/mL (≈ 618 µM) | 256 µg/mL (≈ 618 µM) | 256 µg/mL (≈ 618 µM) | 256 µg/mL (≈ 618 µM) | 128 µg/mL (≈ 309 µM) | 256 µg/mL (≈ 618 µM) | 256 µg/mL (≈ 618 µM) | 256 µg/mL (≈ 618 µM) | 128 µg/mL (≈ 309 µM) | 64 µg/mL (≈ 154 µM)
CC(=O)Nc1ccc(S(=O)(=O)C/C(=N/Nc2ccc([N+](=O)[O-])cc2[N+](=O)[O-])c2nccs2)cc1 | 2 µg/mL (≈ 3.96 µM) | 4 µg/mL (≈ 7.93 µM) | 64 µg/mL (≈ 127 µM) | 64 µg/mL (≈ 127 µM) | 32 µg/mL (≈ 63.4 µM) | 8 µg/mL (≈ 15.9 µM) | 32 µg/mL (≈ 63.4 µM) | 4 µg/mL (≈ 7.93 µM) | 64 µg/mL (≈ 127 µM) | 2 µg/mL (≈ 3.96 µM) | 4 µg/mL (≈ 7.93 µM)
CC(=O)Nc1ccc(S(=O)(=O)/C(=C\c2ccccc2Cl)C(=O)c2nccs2)cc1 | 32 µg/mL (≈ 71.6 µM) | 64 µg/mL (≈ 143 µM) | 16 µg/mL (≈ 35.8 µM) | 256 µg/mL (≈ 573 µM) | 32 µg/mL (≈ 71.6 µM) | 256 µg/mL (≈ 573 µM) | 128 µg/mL (≈ 286 µM) | 64 µg/mL (≈ 143 µM) | 16 µg/mL (≈ 35.8 µM) | 16 µg/mL (≈ 35.8 µM) | 128 µg/mL (≈ 286 µM)
CC(=O)Nc1ccc(S(=O)(=O)C/C(=N/NC(=O)c2cccnc2)c2nccs2)cc1 | 8 µg/mL (≈ 18 µM) | 2 µg/mL (≈ 4.51 µM) | 32 µg/mL (≈ 72.2 µM) | 128 µg/mL (≈ 289 µM) | 16 µg/mL (≈ 36.1 µM) | 2 µg/mL (≈ 4.51 µM) | 128 µg/mL (≈ 289 µM) | 128 µg/mL (≈ 289 µM) | 16 µg/mL (≈ 36.1 µM) | 128 µg/mL (≈ 289 µM) | 32 µg/mL (≈ 72.2 µM)
CC(=O)Nc1ccc(S(=O)(=O)/C(=C\c2ccc([N+](=O)[O-])cc2)C(=O)c2nccs2)cc1 | 256 µg/mL (≈ 560 µM) | 256 µg/mL (≈ 560 µM) | 32 µg/mL (≈ 69.9 µM) | 64 µg/mL (≈ 140 µM) | 64 µg/mL (≈ 140 µM) | 128 µg/mL (≈ 280 µM) | 256 µg/mL (≈ 560 µM) | 64 µg/mL (≈ 140 µM) | 128 µg/mL (≈ 280 µM) | 128 µg/mL (≈ 280 µM) | 256 µg/mL (≈ 560 µM)
CCO/N=C(/CS(=O)(=O)c1ccc(NC(C)=O)cc1)c1nccs1 | 128 µg/mL (≈ 348 µM) | 128 µg/mL (≈ 348 µM) | 32 µg/mL (≈ 87.1 µM) | 128 µg/mL (≈ 348 µM) | 64 µg/mL (≈ 174 µM) | 64 µg/mL (≈ 174 µM) | 64 µg/mL (≈ 174 µM) | 16 µg/mL (≈ 43.5 µM) | 64 µg/mL (≈ 174 µM) | 32 µg/mL (≈ 87.1 µM) | 256 µg/mL (≈ 697 µM)
C#CCO/N=C(/CS(=O)(=O)c1ccc(NC(C)=O)cc1)c1nccs1 | 64 µg/mL (≈ 170 µM) | 64 µg/mL (≈ 170 µM) | 32 µg/mL (≈ 84.8 µM) | 64 µg/mL (≈ 170 µM) | 64 µg/mL (≈ 170 µM) | 32 µg/mL (≈ 84.8 µM) | 64 µg/mL (≈ 170 µM) | 16 µg/mL (≈ 42.4 µM) | 32 µg/mL (≈ 84.8 µM) | 64 µg/mL (≈ 170 µM) | 128 µg/mL (≈ 339 µM)
